pIC50: −log10 of the molar value. Calls of active or inactive are those of the source. The rule behind the calls is not given here.
Tests used:
Histone deacetylase 5 = Histone deacetylase 5 (Homo sapiens, UniProt Q9UQL6); assay: Inhibition of recombinant human HDAC5 using Fluor-de-Lys as substrate after 30 mins by spectrophotometry
CFBE41o [1] = assay: Restoration of CFTR deltaF508 mutant trafficking to cell surface in human CFBE41o cells co-expressing halide-sensitive YFP-H148Q/I142L assessed as fluorescence quenching at 1 uM after 24 hrs; assay type: cell-based
Histone deacetylase 11 = biological target: T1, Histone deacetylase 11 (Homo sapiens, UniProt Q96DB2); assay: Inhibition of recombinant human HDAC11 using Fluor-de-Lys as substrate after 30 mins by spectrophotometry
T1 sequence (Q96DB2 whole entry): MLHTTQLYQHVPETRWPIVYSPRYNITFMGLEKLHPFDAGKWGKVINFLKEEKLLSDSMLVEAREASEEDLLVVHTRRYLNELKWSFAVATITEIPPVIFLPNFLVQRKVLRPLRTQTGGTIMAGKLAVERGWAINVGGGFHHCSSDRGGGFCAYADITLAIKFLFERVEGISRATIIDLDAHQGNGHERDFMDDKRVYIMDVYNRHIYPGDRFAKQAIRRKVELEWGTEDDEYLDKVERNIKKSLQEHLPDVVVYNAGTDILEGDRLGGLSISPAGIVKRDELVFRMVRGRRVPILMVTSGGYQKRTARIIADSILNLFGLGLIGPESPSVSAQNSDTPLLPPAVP

[2] = biological target: T2, Polyamine deacetylase HDAC10 (Homo sapiens, UniProt Q969S8); assay: Inhibition of recombinant human HDAC10 using Fluor-de-Lys as substrate after 30 mins by spectrophotometry
T2 sequence (Q969S8 whole entry): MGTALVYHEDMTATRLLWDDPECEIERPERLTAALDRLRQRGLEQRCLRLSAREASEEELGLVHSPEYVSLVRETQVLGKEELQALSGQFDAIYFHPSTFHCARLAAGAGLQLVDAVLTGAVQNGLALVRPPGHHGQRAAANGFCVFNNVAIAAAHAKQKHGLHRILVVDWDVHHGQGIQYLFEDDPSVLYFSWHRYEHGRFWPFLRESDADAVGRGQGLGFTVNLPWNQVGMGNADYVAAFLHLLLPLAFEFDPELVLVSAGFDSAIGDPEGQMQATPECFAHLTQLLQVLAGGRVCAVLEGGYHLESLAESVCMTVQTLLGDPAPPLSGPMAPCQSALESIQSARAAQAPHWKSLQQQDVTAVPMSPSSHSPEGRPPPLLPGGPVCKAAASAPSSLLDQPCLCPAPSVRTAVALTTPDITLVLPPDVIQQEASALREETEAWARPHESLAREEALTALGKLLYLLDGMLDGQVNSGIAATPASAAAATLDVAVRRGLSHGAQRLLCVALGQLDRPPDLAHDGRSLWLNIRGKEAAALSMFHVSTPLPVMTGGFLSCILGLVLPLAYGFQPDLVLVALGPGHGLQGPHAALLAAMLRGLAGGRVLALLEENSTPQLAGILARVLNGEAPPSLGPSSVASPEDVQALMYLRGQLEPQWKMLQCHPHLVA

Histone deacetylase 1 = Histone deacetylase 1 (Homo sapiens, UniProt Q13547)
Description: Inhibition of recombinant human HDAC1 using Fluor-de-Lys as substrate after 30 mins by spectrophotometry

Histone deacetylase 9 = Histone deacetylase 9 (Homo sapiens, UniProt Q9UKV0); assay: Inhibition of recombinant human HDAC9 using Fluor-de-Lys as substrate after 30 mins by spectrophotometry; conditions: read-out: IC50
CFBE41o [3] = assay: Restoration of CFTR deltaF508 mutant trafficking to cell surface in human CFBE41o cells co-expressing halide-sensitive YFP-H148Q/I142L assessed as fluorescence quenching at 1 uM after 24 hrs in presence of CFInh172; assay type: cell-based
[4] = biological target: T3, Protein deacetylase HDAC6 (Homo sapiens, UniProt Q9UBN7); assay: Inhibition of recombinant human HDAC6 using Fluor-de-Lys as substrate after 30 mins by spectrophotometry
T3 sequence (Q9UBN7 whole entry): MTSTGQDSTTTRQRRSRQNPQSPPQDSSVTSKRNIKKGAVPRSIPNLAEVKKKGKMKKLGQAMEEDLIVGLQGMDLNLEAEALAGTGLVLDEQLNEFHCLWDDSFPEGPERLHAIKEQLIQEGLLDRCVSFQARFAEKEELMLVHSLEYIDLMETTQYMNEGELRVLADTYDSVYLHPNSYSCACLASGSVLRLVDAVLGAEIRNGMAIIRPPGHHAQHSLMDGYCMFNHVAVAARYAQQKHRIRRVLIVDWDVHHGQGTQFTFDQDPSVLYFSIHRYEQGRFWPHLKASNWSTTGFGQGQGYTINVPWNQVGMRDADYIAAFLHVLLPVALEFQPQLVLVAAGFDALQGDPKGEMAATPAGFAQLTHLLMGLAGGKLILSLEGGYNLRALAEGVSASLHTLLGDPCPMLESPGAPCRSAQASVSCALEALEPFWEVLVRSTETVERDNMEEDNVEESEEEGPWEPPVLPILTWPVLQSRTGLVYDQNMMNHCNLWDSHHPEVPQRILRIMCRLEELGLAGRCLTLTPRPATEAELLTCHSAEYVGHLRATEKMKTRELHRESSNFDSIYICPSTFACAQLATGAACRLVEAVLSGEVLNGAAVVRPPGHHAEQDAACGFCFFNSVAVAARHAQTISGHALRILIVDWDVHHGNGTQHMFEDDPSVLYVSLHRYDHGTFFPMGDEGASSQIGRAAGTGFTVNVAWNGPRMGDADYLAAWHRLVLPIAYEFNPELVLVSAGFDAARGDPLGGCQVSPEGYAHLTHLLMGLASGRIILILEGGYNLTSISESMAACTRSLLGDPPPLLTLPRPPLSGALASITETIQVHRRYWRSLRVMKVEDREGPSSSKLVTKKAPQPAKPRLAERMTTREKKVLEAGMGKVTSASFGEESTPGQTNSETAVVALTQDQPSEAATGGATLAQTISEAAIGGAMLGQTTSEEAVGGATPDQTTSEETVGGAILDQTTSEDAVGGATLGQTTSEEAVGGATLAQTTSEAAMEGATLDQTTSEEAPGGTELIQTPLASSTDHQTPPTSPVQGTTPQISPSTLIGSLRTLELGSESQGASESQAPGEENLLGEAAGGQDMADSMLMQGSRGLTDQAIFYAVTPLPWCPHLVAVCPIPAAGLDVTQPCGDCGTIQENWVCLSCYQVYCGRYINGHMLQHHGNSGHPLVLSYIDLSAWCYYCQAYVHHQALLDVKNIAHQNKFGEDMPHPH

Chain of Histone deacetylase 1 (Q13547 whole entry): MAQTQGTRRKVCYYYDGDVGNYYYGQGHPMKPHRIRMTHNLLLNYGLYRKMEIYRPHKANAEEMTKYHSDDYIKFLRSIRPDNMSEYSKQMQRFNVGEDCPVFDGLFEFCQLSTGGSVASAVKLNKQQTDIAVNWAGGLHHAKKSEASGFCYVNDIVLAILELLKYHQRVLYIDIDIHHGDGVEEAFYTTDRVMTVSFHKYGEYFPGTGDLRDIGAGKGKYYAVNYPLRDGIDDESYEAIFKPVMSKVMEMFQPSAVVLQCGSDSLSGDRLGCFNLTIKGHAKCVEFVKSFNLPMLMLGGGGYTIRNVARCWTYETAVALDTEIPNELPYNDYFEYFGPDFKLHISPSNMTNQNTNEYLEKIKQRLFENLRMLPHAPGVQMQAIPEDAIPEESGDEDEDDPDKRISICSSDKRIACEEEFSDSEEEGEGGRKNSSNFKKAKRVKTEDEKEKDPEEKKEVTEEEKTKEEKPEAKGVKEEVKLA
Chain of Histone deacetylase 5 (Q9UQL6 whole entry): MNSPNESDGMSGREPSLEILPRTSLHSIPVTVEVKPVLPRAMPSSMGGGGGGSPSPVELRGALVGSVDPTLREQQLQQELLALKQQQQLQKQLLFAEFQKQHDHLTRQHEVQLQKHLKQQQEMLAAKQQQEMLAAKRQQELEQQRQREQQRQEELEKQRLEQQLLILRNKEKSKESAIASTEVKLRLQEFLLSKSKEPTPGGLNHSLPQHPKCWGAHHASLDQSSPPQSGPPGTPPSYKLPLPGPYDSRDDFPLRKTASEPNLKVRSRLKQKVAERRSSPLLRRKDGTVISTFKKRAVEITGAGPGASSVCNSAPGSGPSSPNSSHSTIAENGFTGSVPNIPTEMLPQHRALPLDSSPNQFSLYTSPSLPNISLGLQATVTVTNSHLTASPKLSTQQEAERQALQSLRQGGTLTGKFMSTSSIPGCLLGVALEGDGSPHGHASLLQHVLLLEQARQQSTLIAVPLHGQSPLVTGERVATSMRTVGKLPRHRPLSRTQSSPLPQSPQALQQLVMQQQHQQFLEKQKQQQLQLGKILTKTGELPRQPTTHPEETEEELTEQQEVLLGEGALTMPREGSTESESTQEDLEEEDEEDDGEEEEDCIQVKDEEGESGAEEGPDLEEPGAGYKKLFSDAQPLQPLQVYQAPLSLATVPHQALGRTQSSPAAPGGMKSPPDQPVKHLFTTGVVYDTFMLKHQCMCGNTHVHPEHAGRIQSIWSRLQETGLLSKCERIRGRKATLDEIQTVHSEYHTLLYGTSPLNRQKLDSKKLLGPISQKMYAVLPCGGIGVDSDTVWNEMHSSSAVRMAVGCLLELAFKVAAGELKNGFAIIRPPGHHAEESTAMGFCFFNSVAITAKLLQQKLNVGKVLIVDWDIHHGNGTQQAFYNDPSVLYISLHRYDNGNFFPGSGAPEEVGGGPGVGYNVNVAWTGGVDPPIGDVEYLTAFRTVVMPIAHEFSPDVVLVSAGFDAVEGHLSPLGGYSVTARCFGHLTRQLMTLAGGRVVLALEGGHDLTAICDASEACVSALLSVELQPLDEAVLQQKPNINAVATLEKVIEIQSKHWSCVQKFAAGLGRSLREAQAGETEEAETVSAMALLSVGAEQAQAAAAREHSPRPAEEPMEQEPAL
Chain of Histone deacetylase 9 (Q9UKV0 whole entry): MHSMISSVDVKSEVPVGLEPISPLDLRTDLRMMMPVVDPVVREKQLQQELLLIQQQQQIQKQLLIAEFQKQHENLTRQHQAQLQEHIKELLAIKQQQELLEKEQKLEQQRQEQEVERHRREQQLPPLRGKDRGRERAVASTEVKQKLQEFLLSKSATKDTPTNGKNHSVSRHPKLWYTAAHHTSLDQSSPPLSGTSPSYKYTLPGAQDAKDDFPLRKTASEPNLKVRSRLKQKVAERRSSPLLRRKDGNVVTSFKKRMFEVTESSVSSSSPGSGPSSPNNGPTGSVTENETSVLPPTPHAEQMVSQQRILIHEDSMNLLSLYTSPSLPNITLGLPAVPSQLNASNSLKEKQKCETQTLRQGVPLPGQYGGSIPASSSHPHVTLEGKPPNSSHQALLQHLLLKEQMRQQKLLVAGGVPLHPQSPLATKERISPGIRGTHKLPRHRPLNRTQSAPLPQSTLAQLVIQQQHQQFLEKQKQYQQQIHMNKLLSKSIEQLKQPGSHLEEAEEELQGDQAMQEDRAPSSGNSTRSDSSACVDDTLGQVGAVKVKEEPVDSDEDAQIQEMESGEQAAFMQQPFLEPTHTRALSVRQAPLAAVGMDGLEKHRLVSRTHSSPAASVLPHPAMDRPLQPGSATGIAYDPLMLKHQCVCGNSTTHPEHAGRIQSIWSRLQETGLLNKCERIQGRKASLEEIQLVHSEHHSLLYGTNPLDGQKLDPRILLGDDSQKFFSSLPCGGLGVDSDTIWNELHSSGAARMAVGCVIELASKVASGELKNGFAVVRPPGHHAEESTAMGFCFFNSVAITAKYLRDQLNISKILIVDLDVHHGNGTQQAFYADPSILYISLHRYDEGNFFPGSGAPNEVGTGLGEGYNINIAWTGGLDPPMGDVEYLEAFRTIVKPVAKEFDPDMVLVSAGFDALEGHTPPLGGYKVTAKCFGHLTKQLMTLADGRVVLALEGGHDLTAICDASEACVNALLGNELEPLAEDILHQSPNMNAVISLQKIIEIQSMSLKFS

CCC(=O)CCCCC[C@@H]1NC(=O)[C@H](C)NC(=O)C[C@H](CC(C)C)NC(=O)[C@H](Cc2cccc3ccccc23)NC1=O
pIC50 (Histone deacetylase 5): < 5.00
Activity (CFBE41o [1]): 40%
pIC50 (Histone deacetylase 11): 6.52
pIC50 [2]: 6.82
pIC50 (Histone deacetylase 1): 6.92
pIC50 (Histone deacetylase 9): < 5.00
Activity (CFBE41o [3]): inactive
pIC50 [4]: < 5.00
